{"source": "paper PMC12396409", "about": "“Screening and hit evaluation of a microbial metabolite library against the pathogenic Plasmodium falciparum and Toxoplasma gondii parasites” (International Journal for Parasitology: Drugs and Drug …, 2025)", "key": {"[1]": {"system": "P. falciparum 3D7 parasites", "test": "P. falciparum growth inhibition assay, 1-cycle (72 h treatment), SYBR DNA staining (library screen at 2 μg/mL and dose-response)", "assay_type": "cell-based, Plasmodium falciparum", "details": "for activity at 2 µg/mL: Plasmodium falciparum, 3D7"}, "[2]": {"system": "P. falciparum 3D7 parasites", "test": "P. falciparum growth inhibition assay, 2-cycle (120 h treatment), delayed-death screen and dose-response", "assay_type": "cell-based, Plasmodium falciparum", "details": "for activity at 2 µg/mL: Plasmodium falciparum, 3D7"}, "[3]": {"system": "T. gondii RH strain (RH-Tub-eYFP) tachyzoites", "test": "microbe, parasite or virus in culture", "assay_type": "cell-based, Toxoplasma gondii", "details": "72 h; for percent parasite growth at 2 µg/mL: Toxoplasma gondii"}, "[4]": {"details": "P. falciparum, 72 h, screen at 2 μg/mL, replicate 1"}, "[5]": {"details": "P. falciparum, 72 h, screen at 2 μg/mL, replicate 2"}, "[6]": {"details": "P. falciparum, 120 h, screen at 2 μg/mL, replicate 1"}, "[7]": {"details": "P. falciparum, 120 h, screen at 2 μg/mL, replicate 2"}, "[8]": {"details": "T. gondii, screen at 2 μg/mL, replicate 1"}, "[9]": {"details": "T. gondii, screen at 2 μg/mL, replicate 2"}}, "note": "Like-named read-outs stand apart in the source and are kept apart here.", "data": [{"smiles": "CC(=O)O[C@H]1CC[C@]2(C)[C@H]3CC[C@]4(C)Oc5cc(C)oc(=O)c5C[C@H]4[C@]3(C)CC[C@H]2C1(C)C", "note": "[Chevalone B]", "values": [{"measurement": "1) Growth (%) at 72 h", "setting": "[1]; P. falciparum, 2 μg/mL, 72 h", "result": 25.41, "unit": "%"}, {"measurement": "Mean", "setting": "[1]; P. falciparum, 72 h, 2 μg/mL, mean of both replicates, growth (% of control)", "result": 25.41}, {"measurement": "Pf_72h_%Growth_Rep1", "setting": "[1]; [4]", "result": 12.18, "unit": "%"}, {"measurement": "Pf_72h_%Growth_Rep2", "setting": "[1]; [5]", "result": 38.64, "unit": "%"}, {"measurement": "2) Growth (%) at 120 h", "setting": "[2]; P. falciparum, 2 μg/mL, 120 h", "result": 17.52, "unit": "%"}, {"measurement": "Pf_120h_%Growth_Rep1", "setting": "[2]; [6]", "result": 13.73, "unit": "%"}, {"measurement": "Pf_120h_%Growth_Rep2", "setting": "[2]; [7]", "result": 21.31, "unit": "%"}, {"measurement": "3) Fold change (72 h/120 h)", "setting": "[2]; P. falciparum, growth at 72 h / growth at 120 h, 2 μg/mL", "result": 1.5}, {"measurement": "Tg_72h_%Growth_Rep1", "setting": "[3]; [8]", "result": 78.55, "unit": "%"}, {"measurement": "Tg_72h_%Growth_Rep2", "setting": "[3]; [9]", "result": 94.84, "unit": "%"}]}, {"smiles": "CCCCCCC(C)C/C(C)=C/C(C)/C=C(C)/C=C/C(O)C(C)(C)c1cc(O)c([C@@H]2O[C@H](CO)C[C@H](O)[C@H]2O)c(=O)o1", "note": "(stereo partly drawn) [Deoxyfusapyrone]", "values": [{"measurement": "Pf_72h_%Growth_Rep1", "setting": "[1]; [4]", "result": 84.11, "unit": "%"}, {"measurement": "Pf_72h_%Growth_Rep2", "setting": "[1]; [5]", "result": 85.81, "unit": "%"}, {"measurement": "Pf_120h_%Growth_Rep1", "setting": "[2]; [6]", "result": 68.41, "unit": "%"}, {"measurement": "Pf_120h_%Growth_Rep2", "setting": "[2]; [7]", "result": 93.55, "unit": "%"}, {"measurement": "Tg_72h_%Growth_Rep1", "setting": "[3]; [8]", "result": 120.14, "unit": "%"}, {"measurement": "Tg_72h_%Growth_Rep2", "setting": "[3]; [9]", "result": 99.56, "unit": "%"}]}, {"smiles": "COc1oc(C2C/C(=C/C(C)=C/C(C)=C/C(C)=C/c3ccc([N+](=O)[O-])cc3)CO2)c(C)c(=O)c1C", "note": "(stereo not drawn) [BIA-N1058]", "values": [{"measurement": "Pf_72h_%Growth_Rep1", "setting": "[1]; P. falciparum 3D7, 72 h, parasite screen at 2 μg/mL, % growth, replicate 1", "result": 9.38, "unit": "%"}, {"measurement": "Pf_72h_%Growth_Rep2", "setting": "[1]; P. falciparum 3D7, 72 h, parasite screen at 2 μg/mL, % growth, replicate 2", "result": 10.75, "unit": "%"}, {"measurement": "Pf_120h_%Growth_Rep1", "setting": "[2]; P. falciparum 3D7, 120 h, parasite screen at 2 μg/mL, % growth, replicate 1", "result": 17.59, "unit": "%"}, {"measurement": "Pf_120h_%Growth_Rep2", "setting": "[2]; P. falciparum 3D7, 120 h, parasite screen at 2 μg/mL, % growth, replicate 2", "result": 18.76, "unit": "%"}, {"measurement": "Tg_72h_%Growth_Rep1", "setting": "[3]; T. gondii, parasite screen at 2 μg/mL, % growth, replicate 1", "result": 44.53, "unit": "%"}, {"measurement": "Tg_72h_%Growth_Rep2", "setting": "[3]; T. gondii, parasite screen at 2 μg/mL, % growth, replicate 2", "result": 72.88, "unit": "%"}]}, {"smiles": "CO[C@H]1C[C@@H]2CC[C@@H](C)[C@@](O)(O2)C(=O)C(=O)N2CCCC[C@H]2C(=O)O[C@H]([C@H](C)C[C@@H]2CC[C@H](n3cnnn3)[C@H](OC)C2)CC(=O)[C@H](C)/C=C(\\C)[C@@H](O)[C@@H](OC)C(=O)[C@H](C)C[C@H](C)/C=C/C=C/C=C/1C", "note": "[Zotarolimus]", "values": [{"measurement": "activity at 2 µg/mL", "setting": "[1]; P. falciparum, 72 h, screen at 2 μg/mL, replicate 1, read-out: Pf_72h_%Growth_Rep1", "result": 75.7, "unit": "%"}, {"measurement": "activity at 2 µg/mL", "setting": "[1]; P. falciparum, 72 h, screen at 2 μg/mL, replicate 2, read-out: Pf_72h_%Growth_Rep2", "result": 88.3, "unit": "%"}, {"measurement": "activity at 2 µg/mL", "setting": "[2]; P. falciparum, 120 h, screen at 2 μg/mL, replicate 1, read-out: Pf_120h_%Growth_Rep1", "result": 97.5, "unit": "%"}, {"measurement": "activity at 2 µg/mL", "setting": "[2]; P. falciparum, 120 h, screen at 2 μg/mL, replicate 2, read-out: Pf_120h_%Growth_Rep2", "result": 77.1, "unit": "%"}, {"measurement": "percent parasite growth at 2 µg/mL", "setting": "[3]; T. gondii, screen at 2 μg/mL, replicate 1, read-out: Tg_72h_%Growth_Rep1", "result": 120, "unit": "%"}, {"measurement": "percent parasite growth at 2 µg/mL", "setting": "[3]; T. gondii, screen at 2 μg/mL, replicate 2, read-out: Tg_72h_%Growth_Rep2", "result": 77.8, "unit": "%"}]}, {"smiles": "CC/C=C\\[C@H](O)[C@H](O)C1=C(C)C(=O)[C@]2(O1)C(=O)N[C@@](OC)(C(=O)c1ccccc1)[C@@H]2O", "note": "[Pseurotin A]", "values": [{"measurement": "activity at 2 µg/mL", "setting": "[1]; P. falciparum, 72 h, parasite screen 2 μg/mL, % growth, replicate 1, read-out: Pf_72h_%Growth_Rep1", "result": 85.8, "unit": "%"}, {"measurement": "activity at 2 µg/mL", "setting": "[1]; P. falciparum, 72 h, parasite screen 2 μg/mL, % growth, replicate 2, read-out: Pf_72h_%Growth_Rep2", "result": 95.5, "unit": "%"}, {"measurement": "activity at 2 µg/mL", "setting": "[2]; P. falciparum, 120 h, parasite screen 2 μg/mL, % growth, replicate 1, read-out: Pf_120h_%Growth_Rep1", "result": 79.7, "unit": "%"}, {"measurement": "activity at 2 µg/mL", "setting": "[2]; P. falciparum, 120 h, parasite screen 2 μg/mL, % growth, replicate 2, read-out: Pf_120h_%Growth_Rep2", "result": 139, "unit": "%"}, {"measurement": "percent parasite growth at 2 µg/mL", "setting": "[3]; T. gondii, parasite screen 2 μg/mL, % growth, replicate 1, read-out: Tg_72h_%Growth_Rep1", "result": 122, "unit": "%"}, {"measurement": "percent parasite growth at 2 µg/mL", "setting": "[3]; T. gondii, parasite screen 2 μg/mL, % growth, replicate 2, read-out: Tg_72h_%Growth_Rep2", "result": 81, "unit": "%"}]}, {"smiles": "CC[C@H]1CCC[C@H](O)[C@@H](C)C(=O)C2=C[C@H]3[C@@H]4C[C@H](O)C[C@H]4CC[C@H]3[C@@H]2CC(=O)O1", "note": "[Dihydrospinosyn A aglycone]", "values": [{"measurement": "IC50", "setting": "[1]; 3D7, 72 h treatment, mean ± S.D., n ≥ 3, read-out: IC50 (μM), P. falciparum", "result": "> 1", "unit": "µM"}, {"measurement": "Screen (P. falciparum)", "setting": "[1]; library screen at 2 μg/mL, 3D7, 72 h, DD from the 120 h timepoint", "result": "I"}, {"measurement": "Pf_72h_%Growth_Rep1", "setting": "[1]; library screen at 2 μg/mL, 72 h, % growth, replicate 1", "result": 96.92, "unit": "%"}, {"measurement": "Pf_72h_%Growth_Rep2", "setting": "[1]; library screen at 2 μg/mL, 72 h, % growth, replicate 2", "result": 105.46, "unit": "%"}, {"measurement": "Pf_120h_%Growth_Rep1", "setting": "[2]; library screen at 2 μg/mL, 120 h, % growth, replicate 1", "result": 88.50, "unit": "%"}, {"measurement": "Pf_120h_%Growth_Rep2", "setting": "[2]; library screen at 2 μg/mL, 120 h, % growth, replicate 2", "result": 102.89, "unit": "%"}, {"measurement": "Tg_72h_%Growth_Rep1", "setting": "[3]; library screen at 2 μg/mL, % growth, replicate 1", "result": 141.87, "unit": "%"}, {"measurement": "Tg_72h_%Growth_Rep2", "setting": "[3]; library screen at 2 μg/mL, % growth, replicate 2", "result": 82.63, "unit": "%"}]}, {"smiles": "CC1=C[C@H](O/C=C2/C(=O)O[C@@H]3c4ccccc4C[C@H]23)OC1=O", "note": "[BIA-G1793]", "values": [{"measurement": "Pf_72h_%Growth_Rep1", "setting": "[1]; P. falciparum 3D7, 72 h, library screen at 2 μg/mL, % growth, replicate 1", "result": 84.39, "unit": "%"}, {"measurement": "Pf_72h_%Growth_Rep2", "setting": "[1]; P. falciparum 3D7, 72 h, library screen at 2 μg/mL, % growth, replicate 2", "result": 84.87, "unit": "%"}, {"measurement": "Pf_120h_%Growth_Rep1", "setting": "[2]; P. falciparum 3D7, 120 h, library screen at 2 μg/mL, % growth, replicate 1", "result": 86.54, "unit": "%"}, {"measurement": "Pf_120h_%Growth_Rep2", "setting": "[2]; P. falciparum 3D7, 120 h, library screen at 2 μg/mL, % growth, replicate 2", "result": 104.67, "unit": "%"}, {"measurement": "Tg_72h_%Growth_Rep1", "setting": "[3]; T. gondii RH, library screen at 2 μg/mL, % growth, replicate 1", "result": 120.90, "unit": "%"}, {"measurement": "Tg_72h_%Growth_Rep2", "setting": "[3]; T. gondii RH, library screen at 2 μg/mL, % growth, replicate 2", "result": 91.67, "unit": "%"}]}, {"smiles": "O=C(O)c1c(=O)cccc2ssc12", "note": "[Tropodithietic acid]", "values": [{"measurement": "Pf_72h_%Growth_Rep1", "setting": "[1]; [4]", "result": 3.58, "unit": "%"}, {"measurement": "Pf_72h_%Growth_Rep2", "setting": "[1]; [5]", "result": -3.15, "unit": "%"}, {"measurement": "Pf_120h_%Growth_Rep1", "setting": "[2]; [6]", "result": 21.29, "unit": "%"}, {"measurement": "Pf_120h_%Growth_Rep2", "setting": "[2]; [7]", "result": 16.13, "unit": "%"}, {"measurement": "Tg_72h_%Growth_Rep1", "setting": "[3]; [8]", "result": 1.16, "unit": "%"}, {"measurement": "Tg_72h_%Growth_Rep2", "setting": "[3]; [9]", "result": 1.78, "unit": "%"}]}, {"smiles": "C[C@@]1(CO)[C@H](O)CC[C@@]2(C)[C@H]1CC[C@H]1C[C@@H]3C[C@@]12CC[C@]3(O)CO", "note": "[Aphidicolin]", "values": [{"measurement": "activity at 2 µg/mL", "setting": "[1]; library screen at 2 μg/mL, 72 h, % growth, replicate 1, read-out: Pf_72h_%Growth_Rep1", "result": 7, "unit": "%"}, {"measurement": "activity at 2 µg/mL", "setting": "[1]; library screen at 2 μg/mL, 72 h, % growth, replicate 2, read-out: Pf_72h_%Growth_Rep2", "result": 4.32, "unit": "%"}, {"measurement": "activity at 2 µg/mL", "setting": "[2]; library screen at 2 μg/mL, 120 h, % growth, replicate 1, read-out: Pf_120h_%Growth_Rep1", "result": 10.5, "unit": "%"}, {"measurement": "activity at 2 µg/mL", "setting": "[2]; library screen at 2 μg/mL, 120 h, % growth, replicate 2, read-out: Pf_120h_%Growth_Rep2", "result": -6.36, "unit": "%"}, {"measurement": "percent parasite growth at 2 µg/mL", "setting": "[3]; library screen at 2 μg/mL, % growth, replicate 1, read-out: Tg_72h_%Growth_Rep1", "result": 1.91, "unit": "%"}, {"measurement": "percent parasite growth at 2 µg/mL", "setting": "[3]; library screen at 2 μg/mL, % growth, replicate 2, read-out: Tg_72h_%Growth_Rep2", "result": 0.58, "unit": "%"}]}]}
